BindingDB's records for doi:10.1021/acs.jmedchem.9b00500 (2019)
Bridge positions count the residues as written; N and C are the ends. Square brackets hold non-standard residues; d marks the D form. Peptide text beside a SMILES is read from it. I, II: the chains in the order shown. Phe(3,4-Cl2) = N[C@@H](Cc1ccc(Cl)c(Cl)c1)C(=O)O; tBuAla = CC(C)(C)C[C@H](N)C(=O)O; hLeu = CC(C)CC[C@H](N)C(=O)O; Nle = CCCC[C@H](N)C(=O)O

Target: Frizzled-7 (Homo sapiens, UniProt O75084)
Test: Binding affinity to recombinant human Frizzled-7 (Gln33 to Leu185 residues)/human IgG1 chimeric protein expressed in CHO cells assessed as […] by SPR assay

SMILES	Kd
CSCC[C@H](NC(=O)[C@@H](NC(=O)[C@H](Cc1cnc[nH]1)NC(=O)[C@H](CSSC[C@H](NC(=O)[C@H](Cc1c[nH]c2ccccc12)NC(=O)[C@H](Cc1ccccc1)NC(=O)[C@H](CCC(=O)O)NC(=O)[C@H](CC(C)(C)C)NC(=O)[C@H](CC(=O)O)NC(=O)[C@H](CC(=O)O)NC(=O)[C@H](CO)NC(C)=O)C(=O)N[C@@H](Cc1cnc[nH]1)C(=O)N[C@H](C(=O)N[C@@H](CCSC)C(=O)N[C@@H](Cc1ccc(O)cc1)C(N)=O)C(C)C)NC(=O)[C@H](Cc1c[nH]c2ccccc12)NC(=O)[C@H](Cc1ccccc1)NC(=O)[C@H](CCC(=O)O)NC(=O)[C@H](CC(C)(C)C)NC(=O)[C@H](CC(=O)O)NC(=O)[C@H](CC(=O)O)NC(=O)[C@H](CO)NC(C)=O)C(C)C)C(=O)N[C@@H](Cc1ccc(O)cc1)C(N)=O (I: Ac-SDD[tBuAla]EFWCHVMY-NH2 / II: Ac-SDD[tBuAla]EFWCHVMY-NH2; disulfide I:8-II:8)	0.95 nM
CCCC[C@H](NC(=O)[C@H](CC(=O)O)NC(=O)[C@H](CC(=O)O)NC(=O)[C@H](CO)NC(C)=O)C(=O)N[C@@H](CCC(=O)O)C(=O)N[C@@H](Cc1ccccc1)C(=O)N[C@@H](Cc1c[nH]c2ccccc12)C(=O)N[C@@H](CSSC[C@H](NC(=O)[C@H](Cc1c[nH]c2ccccc12)NC(=O)[C@H](Cc1ccccc1)NC(=O)[C@H](CCC(=O)O)NC(=O)[C@H](CCCC)NC(=O)[C@H](CC(=O)O)NC(=O)[C@H](CC(=O)O)NC(=O)[C@H](CO)NC(C)=O)C(=O)N[C@@H](Cc1cnc[nH]1)C(=O)N[C@H](C(=O)N[C@@H](CCSC)C(=O)N[C@@H](Cc1ccc(O)cc1)C(N)=O)C(C)C)C(=O)N[C@@H](Cc1cnc[nH]1)C(=O)N[C@H](C(=O)N[C@@H](CCSC)C(=O)N[C@@H](Cc1ccc(O)cc1)C(N)=O)C(C)C (I: Ac-SDD[Nle]EFWCHVMY-NH2 / II: Ac-SDD[Nle]EFWCHVMY-NH2; disulfide I:8-II:8)	23 nM
CSCC[C@H](NC(=O)[C@@H](NC(=O)[C@H](Cc1cnc[nH]1)NC(=O)[C@H](CSSC[C@H](NC(=O)[C@H](Cc1c[nH]c2ccccc12)NC(=O)[C@H](Cc1ccccc1)NC(=O)[C@H](CCC(=O)O)NC(=O)[C@H](CC(C)C)NC(=O)[C@H](CC(=O)O)NC(=O)[C@H](CC(=O)O)NC(=O)[C@H](CO)NC(C)=O)C(=O)N[C@@H](Cc1cnc[nH]1)C(=O)N[C@H](C(=O)N[C@@H](CCSC)C(=O)N[C@@H](Cc1ccc(Cl)c(Cl)c1)C(N)=O)C(C)C)NC(=O)[C@H](Cc1c[nH]c2ccccc12)NC(=O)[C@H](Cc1ccccc1)NC(=O)[C@H](CCC(=O)O)NC(=O)[C@H](CC(C)C)NC(=O)[C@H](CC(=O)O)NC(=O)[C@H](CC(=O)O)NC(=O)[C@H](CO)NC(C)=O)C(C)C)C(=O)N[C@@H](Cc1ccc(Cl)c(Cl)c1)C(N)=O (I: Ac-SDDLEFWCHVM[Phe(3,4-Cl2)]-NH2 / II: Ac-SDDLEFWCHVM[Phe(3,4-Cl2)]-NH2; disulfide I:8-II:8)	0.9 nM
CC[C@H](C)[C@H](NC(=O)[C@H](Cc1cnc[nH]1)NC(=O)[C@H](CSSC[C@H](NC(=O)[C@H](Cc1c[nH]c2ccccc12)NC(=O)[C@H](Cc1ccccc1)NC(=O)[C@H](CCC(=O)O)NC(=O)[C@H](CC(C)C)NC(=O)[C@H](CC(=O)O)NC(=O)[C@H](CC(=O)O)NC(=O)[C@H](CO)NC(C)=O)C(=O)N[C@@H](Cc1cnc[nH]1)C(=O)N[C@H](C(=O)N[C@@H](CCSC)C(=O)N[C@@H](Cc1ccc(O)cc1)C(N)=O)[C@@H](C)CC)NC(=O)[C@H](Cc1c[nH]c2ccccc12)NC(=O)[C@H](Cc1ccccc1)NC(=O)[C@H](CCC(=O)O)NC(=O)[C@H](CC(C)C)NC(=O)[C@H](CC(=O)O)NC(=O)[C@H](CC(=O)O)NC(=O)[C@H](CO)NC(C)=O)C(=O)N[C@@H](CCSC)C(=O)N[C@@H](Cc1ccc(O)cc1)C(N)=O (I: Ac-SDDLEFWCHIMY-NH2 / II: Ac-SDDLEFWCHIMY-NH2; disulfide I:8-II:8)	0.96 nM
CSCC[C@H](NC(=O)[C@@H](NC(=O)[C@H](Cc1cnc[nH]1)NC(=O)[C@H](CSSC[C@H](NC(=O)[C@H](Cc1c[nH]c2ccccc12)NC(=O)[C@H](Cc1ccccc1)NC(=O)[C@H](CCC(=O)O)NC(=O)[C@H](CCC(C)C)NC(=O)[C@H](CC(=O)O)NC(=O)[C@H](CC(=O)O)NC(=O)[C@H](CO)NC(C)=O)C(=O)N[C@@H](Cc1cnc[nH]1)C(=O)N[C@H](C(=O)N[C@@H](CCSC)C(=O)N[C@@H](Cc1ccc(O)cc1)C(N)=O)C(C)C)NC(=O)[C@H](Cc1c[nH]c2ccccc12)NC(=O)[C@H](Cc1ccccc1)NC(=O)[C@H](CCC(=O)O)NC(=O)[C@H](CCC(C)C)NC(=O)[C@H](CC(=O)O)NC(=O)[C@H](CC(=O)O)NC(=O)[C@H](CO)NC(C)=O)C(C)C)C(=O)N[C@@H](Cc1ccc(O)cc1)C(N)=O (I: Ac-SDD[hLeu]EFWCHVMY-NH2 / II: Ac-SDD[hLeu]EFWCHVMY-NH2; disulfide I:8-II:8)	124 nM
CSCC[C@H](NC(=O)[C@@H](CC1CCC1)NC(=O)[C@H](Cc1cnc[nH]1)NC(=O)[C@H](CSSC[C@H](NC(=O)[C@H](Cc1c[nH]c2ccccc12)NC(=O)[C@H](Cc1ccccc1)NC(=O)[C@H](CCC(=O)O)NC(=O)[C@H](CC(C)C)NC(=O)[C@H](CC(=O)O)NC(=O)[C@H](CC(=O)O)NC(=O)[C@H](CO)NC(C)=O)C(=O)N[C@@H](Cc1cnc[nH]1)C(=O)N[C@H](CC1CCC1)C(=O)N[C@@H](CCSC)C(=O)N[C@@H](Cc1ccc(O)cc1)C(N)=O)NC(=O)[C@H](Cc1c[nH]c2ccccc12)NC(=O)[C@H](Cc1ccccc1)NC(=O)[C@H](CCC(=O)O)NC(=O)[C@H](CC(C)C)NC(=O)[C@H](CC(=O)O)NC(=O)[C@H](CC(=O)O)NC(=O)[C@H](CO)NC(C)=O)C(=O)N[C@@H](Cc1ccc(O)cc1)C(N)=O	2.1 nM
CC[C@H](C)[C@H](NC(=O)[C@H](Cc1cnc[nH]1)NC(=O)[C@H](CSSCC[C@H](NC(=O)[C@H](Cc1c[nH]c2ccccc12)NC(=O)[C@H](CC(C)C)NC(=O)[C@H](CCC(=O)O)NC(=O)[C@H](CC(C)C)NC(=O)[C@H](CC(=O)O)NC(=O)[C@H](CC(=O)O)NC(=O)[C@@H](NC(C)=O)[C@@H](C)O)C(=O)N[C@@H](Cc1cnc[nH]1)C(=O)N[C@H](C(=O)N[C@@H](CCSC)C(=O)N[C@@H](Cc1ccc(O)cc1)C(N)=O)[C@@H](C)CC)NC(=O)[C@H](Cc1c[nH]c2ccccc12)NC(=O)[C@H](CC(C)C)NC(=O)[C@H](CCC(=O)O)NC(=O)[C@H](CC(C)C)NC(=O)[C@H](CC(=O)O)NC(=O)[C@H](CC(=O)O)NC(=O)[C@@H](NC(C)=O)[C@H](C)O)C(=O)N[C@@H](CCSC)C(=O)N[C@@H](Cc1ccc(O)cc1)C(N)=O	6.3 nM
